# Measured values taken from PubChem BioAssay (NCI).
# Several values for one entry are separate records, joined by “and”; a condition that tells them apart may be missing. Equal entries are not always repeated.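 In this assay, cells in 96-well plates receive the compound at five concentrations for 48 hours. Endpoints are linearly interpolated between the surrounding concentrations. Abbreviation: GI50, concentration required for 50% inhibition of growth. TGI is the concentration that stops growth completely.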
# Key:
# Assay in all cases: DTP human tumour cell line panel, 48 h
# BT-549 breast = tested on: BT-549 breast
# CAKI-1 renal = tested on: CAKI-1 renal
# HOP-92 NSCLC = tested on: HOP-92 NSCLC
# MOLT-4 leukemia = tested on: MOLT-4 leukemia
# NCI-H226 lung = tested on: NCI-H226 lung
# NCI-H23 lung = tested on: NCI-H23 lung
# OVCAR-5 ovarian = tested on: OVCAR-5 ovarian
# SK-MEL-28 melanoma = tested on: SK-MEL-28 melanoma
# SK-MEL-5 melanoma = tested on: SK-MEL-5 melanoma
# SR leukemia = tested on: SR leukemia
SMILES,GI50 (BT-549 breast),TGI (BT-549 breast),GI50 (CAKI-1 renal) [µM],TGI (CAKI-1 renal) [µM],GI50 (HOP-92 NSCLC),TGI (HOP-92 NSCLC),GI50 (MOLT-4 leukemia),TGI (MOLT-4 leukemia),GI50 (NCI-H226 lung),TGI (NCI-H226 lung),GI50 (NCI-H23 lung),TGI (NCI-H23 lung),GI50 (OVCAR-5 ovarian),TGI (OVCAR-5 ovarian),GI50 (SK-MEL-28 melanoma),TGI (SK-MEL-28 melanoma),GI50 (SK-MEL-5 melanoma),TGI (SK-MEL-5 melanoma),GI50 (SR leukemia),TGI (SR leukemia)
O=C(N/N=C/c1ccc(Cl)cc1)c1[nH]c2ccc(Cl)cc2c1-c1ccccc1,0.146 µM,3.58 µM,0.185,0.645,0.424 µM,41.5 µM,0.108 µM,> 32 µM,0.29 µM,> 44.5 µM,0.328 µM,35.5 µM,0.573 µM,> 100 µM,2.77 µM,> 68.1 µM,0.214 µM,0.469 µM,0.133 µM,2.09 µM
CSc1nsc(S/C=C\C(=O)c2ccc(C)cc2)n1,17.5 µM,40.3 µM,21.8,51.5,17.3 µM,35.1 µM,1.61 µM,> 51.5 µM,20.7 µM,55.5 µM,17.3 µM,34.6 µM,22.7 µM,49.6 µM,13.4 µM,> 45.1 µM,0.706 µM,6.88 µM,1.25 µM,5.61 µM
CCCCNC(=O)Oc1ccc(/C(=C(/CC)Cc2ccccc2)c2ccc(OCCN3CCCCCC3)cc2)cc1,46.5 µM,> 100 µM,19.3,44.7,19 µM,47.2 µM,21.8 µM,72.7 µM,> 100 µM,> 100 µM,59.1 µM,> 100 µM,96.3 µM,> 100 µM,16.5 µM,33.1 µM,19.9 µM,39.1 µM,14.6 µM,41.1 µM
CNCCNc1nc2ccccc2c2c(=O)c3cc(F)ccc3sc12,3.59 µM,14.9 µM,1.38,2.77,1.73 µM,7.42 µM,1.72 µM,3.5 µM,1.8 µM,3.76 µM,1.8 µM,3.65 µM,1.65 µM,3.21 µM,1.85 µM,3.38 µM,1.82 µM,3.34 µM,1.83 µM,4.31 µM
COC(=O)c1cc(-c2ccc(OC)cc2)[nH]c1N/N=C/c1c(Cl)cccc1Cl,0.177 µM,2.02 µM,0.351,15.5,0.206 µM,2.5 µM,0.415 µM,,0.574 µM,28.1 µM,0.412 µM,14 µM,1.49 µM,8.37 µM,0.387 µM,> 100 µM,0.198 µM,3.5 µM,0.0909 µM,1.18 µM
CCCCCCNC(=O)n1cc(F)c(=O)[nH]c1=O,2.56 µM,24.9 µM,1.64,18.4,14.8 µM,50 µM,7.28 µM,44.2 µM,10.6 µM,23.3 µM,6.26 µM,49.1 µM,12.8 µM,37.2 µM,3.96 µM,27.7 µM,3.54 µM,27.1 µM,1.44 µM,21.3 µM
Oc1c(CN2CCCC2)cc(CSCc2ccccc2)c2cccnc12,2.27 µM,12.1 µM,0.0774,1.47,4.52 µM,17.6 µM,0.671 µM,2.74 µM,1.11 µM,4.8 µM,1.31 µM,5.12 µM,4.51 µM,17.1 µM,1.85 µM,13.6 µM,0.35 µM,1.6 µM,0.392 µM,2.32 µM
COc1cc(/C=C2\CN(C(=O)CCN3CCC(=NO)CC3)C/C(=C\c3cc(OC)c(OC)c(OC)c3)C2=O)cc(OC)c1OC,0.332 µM,1.23 µM,0.837,2.34,0.676 µM,2.04 µM,0.328 µM,12.1 µM,0.792 µM,2.85 µM,0.342 µM,1.39 µM,0.874 µM,2.28 µM,0.279 µM,0.766 µM,0.302 µM,0.927 µM,0.255 µM,> 27.7 µM
Cc1cnc(Nc2ccc(OCCN3CCCC3)cc2)nc1Nc1cccc(S(=O)(=O)NC(C)(C)C)c1,1.74 µM and 2.68 µM,4.38 µM and > 9.47 µM,1.11,,0.196 µM and 0.384 µM,2.75 µM and 1.88 µM,0.18 µM and 1.14 µM,12.5 µM and > 10 µM,0.146 µM and 0.813 µM,1.9 µM and 2.97 µM,0.307 µM and 1.92 µM,7.05 µM and > 10 µM,0.151 µM and 0.928 µM,4.51 µM and > 10 µM,3.27 µM and > 7.8 µM,17.5 µM and > 10 µM,1.73 µM and 2.1 µM,5.38 µM and > 5.38 µM,0.247 µM and 0.502 µM,2.34 µM and 5.11 µM
O=C1C(Cl)=C(c2ccc([N+](=O)[O-])cc2)C(=O)c2c(O)cccc21,,4.72 µM,,3.86,,3.15 µM,,> 100 µM,,5.74 µM,,4.14 µM,,5.98 µM,,4.16 µM,,3.46 µM,,> 100 µM
COc1cc(/C=C2\CC3C4CC=C5C[C@@H](O)CC[C@]5(C)C4CC[C@]3(C)C2=O)ccc1OCCCn1ccnc1 (some centres not stated),16.5 µM,44.3 µM,19.1,39.8,14.2 µM,32.6 µM,20.8 µM,41.8 µM,19.6 µM,39.2 µM,18.1 µM,32.9 µM,20.2 µM,41.9 µM,28.9 µM,> 100 µM,14.1 µM,27 µM,24.1 µM,41.9 µM
Nc1cc2[nH]cnc2c(=O)[nH]1,,> 300 µM,,135,,> 300 µM,,> 300 µM,,> 212 µM,,> 300 µM,,> 289 µM,,> 300 µM,,> 290 µM,,> 94.9 µM
CCC[CH2][Sn]1([CH2]CCC)[O]C(=O)c2ccc(N)cc2[O]1,0.15 µM,0.985 µM,0.119,1.27,0.149 µM,0.988 µM,0.254 µM,2.43 µM,0.857 µM,2.64 µM,0.336 µM,1.61 µM,1.77 µM,3.3 µM,0.397 µM,1.48 µM,0.692 µM,2.15 µM,0.549 µM,
